Measurements from patent US8404738B2 (Hoffmann-La Roche Inc., priority 2011, dated 2013).

How the values were obtained:
[1] = test system: p21 promoter-luciferase construct; assay: p21 reporter gene induction (HeLa cells, p21 promoter-luciferase construct); settings: for p21 RP3: relative gene level of p21 compared to MS275 at 3 μM; for p21 RP10: relative level of p21 compared to MS275 at 10 μM; for p21 RP30: relative level of p21 compared to MS275 at 30 μM;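 as to all read-outs here: transfected HeLa cells exposed to compound for 15 h, luciferase luminescence read from lysates, p21 promoter lacks p53 site, proxy for cellular HDAC1/2/3 inhibition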
Method: As a surrogate for in-cell HDAC1/2/3 inhibition, p21 induction was used as a counterscreen to evaluate the selectivity of the compounds in the present invention toward HDAC6 or HDAC8.
The novel compounds of the present invention were tested for their ability to induce p21 gene expression using a reporter gene assay involving HeLa cells transfected with a p21 promoter-luciferase construct. The p21 promoter contained the Sp1/Sp3 binding site for HDAC but not the upstream p53 binding site. Briefly, the day before transfection, HeLa cells were seeded at 11,000 cells/well in a 96-well culture plate and incubated at 37° C. in 5% CO2 overnight. A transfection media was prepared prior to transfection according to the following procedure: (1) 5 μl serum-free DMEM, 0.15 μl Fugene 6 reagent, 40 ng p21-luc, 10 ng GFP were mixed gently and incubated at rt for 30 minutes; (2), then 98 μl DMEM (with 10% FBS, 1% penicillin and streptomycin) was added to the DNA: Fugene 6 reagent complex and mixed gently. For transfection, the medium was removed and replaced with 100 μl/well transfection media which was prepared according to the procedure above. After incubating the cells for 24 hours at 37° C. in 5% CO2, fresh media and test compounds were added to the wells and the cells further incubated for 15 hours at 37° C. in 5% CO2. Cells were lysed by adding 80 μl/well of a cell culture lysis reagent (Promega). 50 μl of each lysate was taken for GFP detection using an excitation wavelength of 486 nm and detection at 527 nm. 100 μl luciferase assay reagent (Promega) was then added to every 20 μl cell lysate for luminometer detection.

[2] = target: T1, HDAC6 (Homo sapiens, UniProt Q9UBN7); assay: Tubulin acetylation cytoblot assay (A549 cells); format: cell-based; settings: 17-18 h incubation, tubulin acetylation as marker of HDAC6 inhibition, read-out: Tub-Ac EC50
T1 construct: endogenous in cells; host or cells: A549 cells
T1 sequence (Q9UBN7 1-1215): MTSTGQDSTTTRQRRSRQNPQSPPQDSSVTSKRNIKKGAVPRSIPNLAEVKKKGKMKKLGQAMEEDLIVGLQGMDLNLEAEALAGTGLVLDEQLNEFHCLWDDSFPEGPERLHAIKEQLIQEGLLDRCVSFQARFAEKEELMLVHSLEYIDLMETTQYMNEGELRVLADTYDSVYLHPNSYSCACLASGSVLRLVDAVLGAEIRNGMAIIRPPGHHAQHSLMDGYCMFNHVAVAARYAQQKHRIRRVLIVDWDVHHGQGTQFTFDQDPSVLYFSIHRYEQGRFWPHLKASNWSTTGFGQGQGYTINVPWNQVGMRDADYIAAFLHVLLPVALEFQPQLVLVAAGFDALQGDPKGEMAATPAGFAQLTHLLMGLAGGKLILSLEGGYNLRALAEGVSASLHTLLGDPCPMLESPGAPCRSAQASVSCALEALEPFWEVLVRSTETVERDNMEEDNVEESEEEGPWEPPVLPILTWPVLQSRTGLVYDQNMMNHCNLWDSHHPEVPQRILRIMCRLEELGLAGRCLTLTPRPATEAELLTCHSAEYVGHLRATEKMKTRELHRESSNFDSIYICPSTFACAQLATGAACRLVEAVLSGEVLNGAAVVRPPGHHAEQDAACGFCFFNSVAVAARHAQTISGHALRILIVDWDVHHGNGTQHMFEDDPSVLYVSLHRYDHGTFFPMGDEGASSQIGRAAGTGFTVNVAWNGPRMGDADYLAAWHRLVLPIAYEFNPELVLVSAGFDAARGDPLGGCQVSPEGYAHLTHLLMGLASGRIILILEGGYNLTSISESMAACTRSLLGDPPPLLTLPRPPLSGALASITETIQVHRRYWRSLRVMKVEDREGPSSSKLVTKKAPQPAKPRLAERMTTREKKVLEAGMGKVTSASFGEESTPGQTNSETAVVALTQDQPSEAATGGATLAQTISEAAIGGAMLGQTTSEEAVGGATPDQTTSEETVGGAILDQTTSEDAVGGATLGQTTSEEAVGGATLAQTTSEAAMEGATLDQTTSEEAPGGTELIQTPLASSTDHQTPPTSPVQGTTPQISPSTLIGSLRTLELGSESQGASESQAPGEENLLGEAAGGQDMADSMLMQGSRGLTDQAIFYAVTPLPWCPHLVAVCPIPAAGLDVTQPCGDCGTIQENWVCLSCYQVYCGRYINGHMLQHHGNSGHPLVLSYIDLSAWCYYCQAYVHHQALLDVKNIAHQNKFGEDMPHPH
Outline: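 Cells were exposed to compound for 17-18 h, then fixed with formaldehyde and permeabilized with cold MeOH. They were probed for 4 h at 4° C with anti-acetylated tubulin plus HRP anti-mouse IgG (each 1:750), and read by ECL luminescence. EC50 values came from curves normalized to top and bottom controls.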

[3] = target: T2, recombinant human HDAC8 (Homo sapiens, UniProt Q9BY41); assay: HDAC8 inhibition: recombinant HDAC8 fluorometric assay; format: biochemical; settings: recombinant human HDAC8, substrate Ac-Arg-His-Lys-Lys(ε-acetyl)-AMC; read-out: HDAC8 IC50
T2 construct: made in house; host or cells: insect cells
T2 sequence (Q9BY41 1-377): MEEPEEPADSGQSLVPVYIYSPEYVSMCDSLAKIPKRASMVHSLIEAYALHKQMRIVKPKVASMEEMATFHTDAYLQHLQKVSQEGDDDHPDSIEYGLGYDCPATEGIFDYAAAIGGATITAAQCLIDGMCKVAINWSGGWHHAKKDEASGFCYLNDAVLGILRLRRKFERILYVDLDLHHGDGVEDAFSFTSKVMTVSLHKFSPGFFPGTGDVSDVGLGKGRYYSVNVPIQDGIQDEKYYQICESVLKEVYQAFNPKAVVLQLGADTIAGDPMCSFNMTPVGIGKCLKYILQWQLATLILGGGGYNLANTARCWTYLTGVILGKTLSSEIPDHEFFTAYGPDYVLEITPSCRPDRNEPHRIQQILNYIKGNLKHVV
Outline: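 Recombinant human HDAC8 from insect cells was preincubated with compound for 15 min at rt, then given Ac-Arg-His-Lys-Lys(ε-acetyl)-AMC substrate for 30 min at rt. IC50 came from normalized percent inhibition with curve fitting.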

O=C(NO)c1ccc(NC2CC(=O)N(Cc3ccccc3)C2)cc1 (stereo not shown) [Example 75, 4-(1-Benzyl-5-oxo-pyrrolidin-3-ylamino)-N-hydroxy-benzamide]
p21 RP3 [1]: 0.19
p21 RP10 [1]: 0.07
p21 RP30 [1]: 0.11
EC50 [2]: 4560 nM
IC50 [3]: 860 nM

CC1C(=O)N(c2ccc(Cl)cc2)CC1Nc1ccc(C(=O)NO)cc1 (stereo not shown) [Example 78, 4-[1-(4-Chloro-phenyl)-4-methyl-5-oxo-pyrrolidin-3-ylamino]-N-hydroxy-benzamide]
p21 RP3 [1]: 0.64
p21 RP10 [1]: 0.15
p21 RP30 [1]: 0.04
EC50 [2]: 1810 nM
IC50 [3]: 1830 nM

O=C(NO)c1ccc(NC2CCN(c3ccccc3)C2)cc1 (stereo not shown) [Example 79, N-Hydroxy-4-(1-phenyl-pyrrolidin-3-ylamino)-benzamide]
p21 RP3 [1]: 0.21
p21 RP10 [1]: 0.09
p21 RP30 [1]: 0.04
EC50 [2]: 4540 nM
IC50 [3]: 1700 nM

O=C(NO)c1ccc(NC2CCN(c3ccc(Cl)cc3)C2)cc1 (stereo not shown) [Example 80, 4-[1-(4-Chloro-phenyl)-pyrrolidin-3-ylamino]-N-hydroxy-benzamide]
p21 RP3 [1]: 0.37
p21 RP10 [1]: 0.08
p21 RP30 [1]: −0.05
EC50 [2]: 4260 nM
IC50 [3]: 4650 nM

O=C(NO)c1ccc(NC2CCN(c3c(Cl)cccc3Cl)C2)cc1 (stereo not shown) [Example 81, 4-[1-(2,6-Dichloro-phenyl)-pyrrolidin-3-ylamino]-N-hydroxy-benzamide]
p21 RP3 [1]: 0.08
p21 RP10 [1]: −0.04
p21 RP30 [1]: −0.01
EC50 [2]: 720 nM
IC50 [3]: 1920 nM

O=C(NO)c1ccc(NC2CCN(c3ccc(Cl)cc3Cl)C2)cc1 (stereo not shown) [Example 82, 4-[1-(2,4-Dichloro-phenyl)-pyrrolidin-3-ylamino]-N-hydroxy-benzamide]
p21 RP3 [1]: 0.14
p21 RP10 [1]: −0.08
p21 RP30 [1]: −0.06
EC50 [2]: 1430 nM
IC50 [3]: 2360 nM

O=C(NO)c1ccc(NC2CCN(c3ncccn3)C2)cc1 (stereo not shown) [Example 83, N-Hydroxy-4-(1-pyrimidin-2-yl-pyrrolidin-3-ylamino)-benzamide]
p21 RP3 [1]: 0.37
p21 RP10 [1]: 0.11
p21 RP30 [1]: 0.08
EC50 [2]: 1110 nM
IC50 [3]: 1210 nM

O=C(NO)c1ccc(NC2CCN(S(=O)(=O)c3ccc(F)cc3)C2)cc1 (stereo not shown) [Example 85, 4-[1-(4-Fluoro-benzenesulfonyl)-pyrrolidin-3-ylamino]-N-hydroxy-benzamide]
p21 RP3 [1]: 0.35
p21 RP10 [1]: 0.10
p21 RP30 [1]: 0.05
EC50 [2]: 7310 nM
IC50 [3]: 1120 nM

CC1(Nc2ccc(C(=O)NO)cc2)C(=O)N(Cc2ccccc2)c2ccccc21 (stereo not shown) [Example 91, 4-(1-Benzyl-3-methyl-2-oxo-2,3-dihydro-1H-indol-3-ylamino)-N-hydroxy-benzamide]
p21 RP3 [1]: 2.06
p21 RP10 [1]: 2.66
p21 RP30 [1]: 0.84
EC50 [2]: 5230 nM
IC50 [3]: 1280 nM

CC1(Nc2ccc(C(=O)NO)cc2)C(=O)N(Cc2ccccc2Cl)c2ccccc21 (stereo not shown) [Example 92]
p21 RP3 [1]: 0.56
p21 RP10 [1]: 0.20
p21 RP30 [1]: 0.40
EC50 [2]: 330 nM
IC50 [3]: 1740 nM

CC1(Nc2ccc(C(=O)NO)cc2)C(=O)N(Cc2cccc(Cl)c2)c2ccccc21 (stereo not shown) [Example 93, 4-[1-(3-chloro-benzyl)-3-methyl-2-oxo-2,3-dihydro-1H-indol-3-ylamino)-N-hydroxy-benzamide]
p21 RP3 [1]: 0.58
p21 RP10 [1]: 0.12
p21 RP30 [1]: 0.05
EC50 [2]: 410 nM
IC50 [3]: 1920 nM

CC1(Nc2ccc(C(=O)NO)cc2)C(=O)N(c2ccccc2)c2ccccc21 (stereo not shown) [Example 95, N-hydroxy-4-(3-methyl-2-oxo-1-phenyl-2,3-dihydro-1H-indol-3-ylamino)-benzamide]
p21 RP3 [1]: 0.58
p21 RP10 [1]: 0.39
p21 RP30 [1]: 0.60
EC50 [2]: 80 nM
IC50 [3]: 850 nM

CC1(Nc2ccc(C(=O)NO)cc2)C(=O)N(c2cccc(Cl)c2)c2ccccc21 (stereo not shown) [Example 96, 4-[1-(3-chloro-phenyl)-3-methyl-2-oxo-2,3-dihydro-1H-indol-3-ylamino)-N-hydroxy-benzamide]
p21 RP3 [1]: 0.86
p21 RP10 [1]: 1.34
p21 RP30 [1]: 0.02
EC50 [2]: 320 nM
IC50 [3]: 1400 nM

CC1(Nc2ccc(C(=O)NO)cc2)C(=O)N(c2ccc(Cl)cc2)c2ccc(F)cc21 (stereo not shown) [Example 97, 4-[1-(4-Chloro-phenyl)-5-fluoro-3-methyl-2-oxo-2,3-dihydro-1H-indol-3-ylamino]-N-hydroxy-benzamide]
p21 RP3 [1]: 2.39
p21 RP10 [1]: 3.56
p21 RP30 [1]: 0.07
EC50 [2]: 200 nM
IC50 [3]: 2080 nM

CC1(Nc2ccc(C(=O)NO)cc2)C(=O)N(c2cccc(Cl)c2)c2ccc(F)cc21 (stereo not shown) [Example 98, 4-[1-(3-Chloro-phenyl)-5-fluoro-3-methyl-2-oxo-2,3-dihydro-1H-indol-3-ylamino]-N-hydroxy-benzamide]
p21 RP3 [1]: 2.13
p21 RP10 [1]: 3.06
p21 RP30 [1]: 0.00
EC50 [2]: 190 nM
IC50 [3]: 1690 nM

CC1(Nc2ccc(C(=O)NO)cc2)C(=O)N(Cc2ccccc2Cl)c2ccc(F)cc21 (stereo not shown) [Example 99, 4-[1-(2-Chloro-benzyl)-5-fluoro-3-methyl-2-oxo-2,3-dihydro-1H-indol-3-ylamino]-N-hydroxy-benzamide]
p21 RP3 [1]: 0.95
p21 RP10 [1]: 0.62
p21 RP30 [1]: 0.00
EC50 [2]: 150 nM
IC50 [3]: 1230 nM

CC1(Nc2ccc(C(=O)NO)cc2)C(=O)N(c2cccc(Cl)c2)c2ccncc21 (stereo not shown) [Example 100, 4-[1-(3-Chloro-phenyl)-3-methyl-2-oxo-2,3-dihydro-1H-pyrrolo[3,2-c]pyridin-3-ylamino]-N-hydroxy-benzamide]
p21 RP3 [1]: 0.45
p21 RP10 [1]: 0.13
p21 RP30 [1]: 0.31
EC50 [2]: 710 nM
IC50 [3]: 720 nM
